Results taken from US20070254903A1, “Novel Spiroindoline or Spiroisoquinoline Compounds, Methods of Use and Compositions Thereof” (ARENA PHARMACEUTICALS, INC., priority 2003, published 2007).

Biological target: T1, human Mas receptor (Homo sapiens, UniProt P04201)
T1 construct: expressed in transfected cells
T1 sequence (P04201 1-325): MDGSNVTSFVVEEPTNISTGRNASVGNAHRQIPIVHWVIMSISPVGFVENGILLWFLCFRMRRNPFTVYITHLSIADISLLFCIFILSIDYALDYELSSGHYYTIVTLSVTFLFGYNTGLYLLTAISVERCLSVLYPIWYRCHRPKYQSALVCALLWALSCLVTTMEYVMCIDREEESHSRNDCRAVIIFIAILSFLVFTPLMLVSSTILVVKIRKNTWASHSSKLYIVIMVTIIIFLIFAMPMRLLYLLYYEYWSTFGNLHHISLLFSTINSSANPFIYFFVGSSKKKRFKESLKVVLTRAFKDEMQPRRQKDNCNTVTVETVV
Assay: Mas receptor IP3 assay (inverse agonist assay)
Assay type: cell-based
Conditions: HEK293 cells over-expressing human Mas receptor; average from several experiments
Procedure: The Mas receptor IP3 assay was performed using a mammalian cell line (HEK293) which was transfected with a plasmid containing the human Mas receptor and selected for stable expression of the receptor. For the inverse agonist assay, higher levels of Mas receptor constitutive activity were desired. To achieve this, Mas receptor expression levels were increased by transiently transfecting the same Mas receptor stable cell line with additional human Mas receptor plasmid DNA following standard procedures. These cells were used in the Mas receptor IP3 assay approximately 24 hours post-transfection.
Cells were split into 96-well plates (50,000 cells/well) and allowed to attach for a period of 6 hours. The growth medium was then replaced with medium supplemented with 4 μCi/ml [^3H]myo-inositol (100 μl; Perkin Elmer Life Sciences) and the cells were allowed to incubate for approximately 20 hours. Test compounds were serially diluted in inositol-free media containing 10 mM LiCl. The media in the plates was removed by aspiration, replaced with these test compound solutions and incubated at 37° C. for 1 hour. Following this incubation, the media was removed by aspiration and replaced with buffer containing 0.1M formic acid. The plates were then frozen overnight at −80° C. to achieve complete cell lysis.
The following day, the assay plates were thawed at room temperature. The thawed contents were then transfered to 96-well filter plates (Millipore, Multiscreen) pre-loaded with resin (Biorad, AG1-X8 100-200 mesh, formate form). The plate was filtered using a vacuum manifold and the resin was washed multiple times with water. An elution buffer was then applied (200 μl, 0.2M Ammonium formate/0.1M formic acid) and the resulting eluent was collected, under vacuum, in a 96-well collection plate. Aliquots of the eluent (80 μl) were transferred to filter plates (Whatman, Unifilter GF/C) and dried in a 45° C. oven overnight. Dried plates were counted on a scintillation counter following the addition of an appropriate scintillant (Perkin Elmer Life Sciences, Optiphase Supermix or Hi-Safe 3).

| Structure (SMILES) | IC50 [nM] |
| --- | --- |
| C=CCN1CCC2(CC1)CN(C(=O)c1ccc(Br)s1)c1ccc(F)cc12 [Compound 223, 1′-(allyl)-1,2-dihydro-5-fluoro-1-(5-bromo-thiophene-2-carbonyl)-spiro[3H-indole-3,4′-piperidine]] | 307 |
| C=CCN1CCC2(CC1)CN(S(=O)(=O)c1ccccc1F)c1ccc(F)cc12 [Compound 229, 1′-(allyl)-1,2-dihydro-5-fluoro-1-(2-fluoro-benzenesulfonyl)-spiro[3H-indole-3,4′-piperidine]] | 846 |
